Measured values as given in ChEMBL document CHEMBL1140820, “beta-N-Biaryl ether sulfonamide hydroxamates as potent gelatinase inhibitors: part 2. Optimization of alpha-amino substituents” (Bioorg Med Chem Lett, 2008).
pIC50, pKi: −log10 of the molar value.

Assays:
[1] = target: 72 kDa type IV collagenase (Homo sapiens, UniProt P08253); experiment: Inhibition of MMP2
[2] = Cmax in rat at 0.5 mg/kg, iv; format: ADME, organism-based; set-up: dose 0.5 mg/kg, route intravenous; settings: in vivo
[3] = Apparent elimination half life in rat at 0.5 mg/kg, iv; format: ADME, organism-based; set-up: dose 0.5 mg/kg, route intravenous; settings: in vivo, read-out: beta t1/2 (converted)
[4] = AUC in rat at 0.5 mg/kg, iv; format: ADME, organism-based; set-up: dose 0.5 mg/kg, route intravenous; settings: plasma
[5] = Metabolic stability in rat liver microsomes assessed as half life […]; format: ADME, Microsome
[6] = Aqueous solubility at pH 2.0; format: physicochemical
[7] = Volume of distribution at steady state in rat at 0.5 mg/kg, iv; format: ADME, organism-based; set-up: dose 0.5 mg/kg, route intravenous; settings: in vivo, read-out: Vdss
[8] = target: Matrix metalloproteinase-9 (Homo sapiens, UniProt P14780); experiment: Inhibition of MMP9
[9] = Protein binding in rat at 0.5 mg/kg, iv; format: ADME, organism-based; set-up: dose 0.5 mg/kg, route intravenous; settings: plasma, read-out: PPB (converted)
[10] = Aqueous solubility at pH 7.0; format: physicochemical
[11] = Clearance in rat at 0.5 mg/kg, iv; format: ADME, organism-based; set-up: dose 0.5 mg/kg, route intravenous; settings: in vivo
[12] = Selectivity for MMP9 over MMP2
[13] = Metabolic stability in human liver microsomes assessed as half life […]; format: ADME, Microsome
Interstitial collagenase = target: T1, Interstitial collagenase (Homo sapiens, UniProt P03956); experiment: Inhibition of MMP1
T1 sequence (P03956 whole entry): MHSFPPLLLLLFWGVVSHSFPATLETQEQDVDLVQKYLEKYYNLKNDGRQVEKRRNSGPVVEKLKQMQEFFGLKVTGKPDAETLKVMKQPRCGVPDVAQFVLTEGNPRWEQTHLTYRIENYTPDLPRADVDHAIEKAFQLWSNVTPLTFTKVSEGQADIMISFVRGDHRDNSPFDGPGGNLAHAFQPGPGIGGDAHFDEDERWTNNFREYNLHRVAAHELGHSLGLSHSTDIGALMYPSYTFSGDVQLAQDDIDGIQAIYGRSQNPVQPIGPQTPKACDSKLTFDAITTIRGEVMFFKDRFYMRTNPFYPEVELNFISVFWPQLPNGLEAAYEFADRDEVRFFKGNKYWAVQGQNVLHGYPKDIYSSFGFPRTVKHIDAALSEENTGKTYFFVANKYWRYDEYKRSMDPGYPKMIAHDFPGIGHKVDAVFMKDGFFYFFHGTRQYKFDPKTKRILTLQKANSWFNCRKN

Collagenase 3 = Collagenase 3 (Homo sapiens, UniProt P45452); experiment: Inhibition of MMP13

Chain of 72 kDa type IV collagenase (P08253 whole entry): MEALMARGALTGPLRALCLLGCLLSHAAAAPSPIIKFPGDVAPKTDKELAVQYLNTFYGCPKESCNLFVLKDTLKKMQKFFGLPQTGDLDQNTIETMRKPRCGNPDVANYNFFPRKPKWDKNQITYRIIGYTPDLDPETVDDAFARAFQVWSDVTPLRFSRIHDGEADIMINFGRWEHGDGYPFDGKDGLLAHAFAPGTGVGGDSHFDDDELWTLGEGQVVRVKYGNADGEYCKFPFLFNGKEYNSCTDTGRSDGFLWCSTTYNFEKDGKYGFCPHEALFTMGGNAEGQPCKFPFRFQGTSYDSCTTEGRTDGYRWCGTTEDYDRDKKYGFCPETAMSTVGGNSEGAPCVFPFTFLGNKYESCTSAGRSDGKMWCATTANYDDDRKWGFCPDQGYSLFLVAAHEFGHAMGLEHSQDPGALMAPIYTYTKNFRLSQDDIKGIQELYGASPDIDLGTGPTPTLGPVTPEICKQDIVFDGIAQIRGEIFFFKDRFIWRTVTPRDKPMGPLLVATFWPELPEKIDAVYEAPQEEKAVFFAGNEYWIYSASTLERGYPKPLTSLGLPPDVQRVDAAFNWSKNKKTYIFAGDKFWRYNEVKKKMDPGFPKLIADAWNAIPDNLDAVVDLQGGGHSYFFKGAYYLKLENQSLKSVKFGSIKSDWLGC
Chain of Matrix metalloproteinase-9 (P14780 whole entry): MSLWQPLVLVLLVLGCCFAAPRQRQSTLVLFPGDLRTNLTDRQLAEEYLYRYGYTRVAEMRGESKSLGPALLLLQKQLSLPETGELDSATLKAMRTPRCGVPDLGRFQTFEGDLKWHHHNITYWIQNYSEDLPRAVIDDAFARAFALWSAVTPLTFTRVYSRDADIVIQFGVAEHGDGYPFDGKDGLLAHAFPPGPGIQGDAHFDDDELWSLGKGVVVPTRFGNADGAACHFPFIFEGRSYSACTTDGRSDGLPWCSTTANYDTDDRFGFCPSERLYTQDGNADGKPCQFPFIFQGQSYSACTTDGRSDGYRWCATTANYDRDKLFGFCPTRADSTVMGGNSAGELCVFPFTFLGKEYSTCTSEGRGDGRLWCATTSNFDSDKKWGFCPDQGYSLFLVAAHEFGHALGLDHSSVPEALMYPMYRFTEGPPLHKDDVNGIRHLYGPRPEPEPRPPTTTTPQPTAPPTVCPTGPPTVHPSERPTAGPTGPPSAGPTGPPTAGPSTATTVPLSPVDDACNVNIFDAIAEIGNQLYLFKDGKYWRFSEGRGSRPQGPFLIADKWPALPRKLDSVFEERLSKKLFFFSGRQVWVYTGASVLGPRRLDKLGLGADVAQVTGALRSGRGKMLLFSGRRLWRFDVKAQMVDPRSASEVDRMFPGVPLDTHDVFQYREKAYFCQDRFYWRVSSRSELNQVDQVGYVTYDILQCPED

Row | Structure (SMILES) | pIC50 [1] | pIC50 [8] | Ratio IC50 [12] | further results
1 | Cc1ccc(Oc2ccc(N(C[C@@H](C(=O)NO)N3CCOCC3)S(C)(=O)=O)cc2)cc1 | 8.28 | 8.72 | 2.7 | Cmax [2]: 3700 nM; half-life [3]: 360 min; AUC [4]: 670 ng·h/mL; half-life [5]: 10 min; solubility [6]: > 70 µg/mL; Vd [7]: 0.66 L/kg; fraction unbound [9]: 0.42; solubility [10]: > 70 µg/mL; clearance [11]: 12.8 mL/min/kg; half-life [13]: > 120 min
2 | Cc1ccc(Oc2ccc(N(C[C@H](Nc3cccc(Cl)c3)C(=O)NO)S(C)(=O)=O)cc2)cc1 |  | 7.70 | 16.6 | 
3 | Cc1ccc(Oc2ccc(N(C[C@H](NC(C)C)C(=O)NO)S(C)(=O)=O)cc2)cc1 | 8.40 | 9.28 | 7.7 | Cmax [2]: 2680 nM; half-life [3]: 9.6 min; AUC [4]: 250 ng·h/mL; half-life [5]: < 9 min; Vd [7]: 0.49 L/kg; fraction unbound [9]: 0.16; clearance [11]: 35 mL/min/kg; half-life [13]: 49 min
4 | Cc1ccc(Oc2ccc(N(C[C@H](N[C@@H](C)c3ccccc3)C(=O)NO)S(C)(=O)=O)cc2)cc1 | 7.92 |  | 22.2 | pIC50 (Interstitial collagenase): < 5.00
5 | Cc1ccc(Oc2ccc(N(C[C@H](Nc3cccc(F)c3)C(=O)NO)S(C)(=O)=O)cc2)cc1 |  | 9.05 | 59.6 | Cmax [2]: 620 nM; half-life [3]: 36 min; AUC [4]: 130 ng·h/mL; half-life [5]: < 9 min; Vd [7]: 2.89 L/kg; fraction unbound [9]: 0.003; clearance [11]: 66.9 mL/min/kg; half-life [13]: < 9 min
6 | C[C@@H]1CN([C@@H](CN(c2ccc(Oc3ccc(C(F)(F)F)cc3)cc2)S(C)(=O)=O)C(=O)NO)C[C@H](C)O1 | 8.25 | 8.96 | 5.1 | 
7 | Cc1ccc(Oc2ccc(N(C[C@H](NCc3cccnc3)C(=O)NO)S(C)(=O)=O)cc2)cc1 | 7.77 | 8.55 | 6.1 | 
8 | CS(=O)(=O)N(C[C@@H](C(=O)NO)N1CCN(c2ccc(Cl)cc2)CC1)c1ccc(Oc2ccc(C(F)(F)F)cc2)cc1 |  |  | 2.7 | 
9 | Cc1ccc(Oc2ccc(N(C[C@H](NC(=O)C(C)C)C(=O)NO)S(C)(=O)=O)cc2)cc1 | 7.15 | 8.27 | 13 | 
10 | CS(=O)(=O)N(C[C@@H](C(=O)NO)N1CCC(c2ccccc2)CC1)c1ccc(Oc2ccc(C(F)(F)F)cc2)cc1 |  |  | 2.7 | 
11 | CS(=O)(=O)N(C[C@@H](C(=O)NO)N1CCS(=O)(=O)CC1)c1ccc(Oc2ccc(C(F)(F)F)cc2)cc1 | 8.32 | 8.77 | 2.8 | 
12 | Cc1ccc(Oc2ccc(N(C[C@H](Nc3ccc(F)cc3)C(=O)NO)S(C)(=O)=O)cc2)cc1 |  | 8.89 | 49.2 | 
13 | COc1cccc(N[C@@H](CN(c2ccc(Oc3ccc(C)cc3)cc2)S(C)(=O)=O)C(=O)NO)c1 |  |  | 43.5 | pIC50 (Interstitial collagenase): < 5.00
14 | Cc1ccc(Oc2ccc(N(C[C@H](NCc3ccccn3)C(=O)NO)S(C)(=O)=O)cc2)cc1 |  |  | 3.6 | 
15 | CS(=O)(=O)N1CCN([C@@H](CN(c2ccc(Oc3ccc(C(F)(F)F)cc3)cc2)S(C)(=O)=O)C(=O)NO)CC1 | 8.00 | 8.49 | 3.1 | 
16 | Cc1ccc(Oc2ccc(N(C[C@H](NCC(C)C)C(=O)NO)S(C)(=O)=O)cc2)cc1 | 7.96 | 8.89 | 8.8 | pIC50 (Interstitial collagenase): < 5.00
17 | Cc1ccc(Oc2ccc(N(C[C@H](C(=O)NO)N3CCOCC3)S(C)(=O)=O)cc2)cc1 |  |  | 4.5 | 
18 | CS(=O)(=O)N(C[C@@H](C(=O)NO)N1CCOCC1)c1ccc(Oc2ccc(Cl)cc2)cc1 |  |  | 2.8 | 
19 | CC(C)N(C)[C@@H](CN(c1ccc(Oc2ccc(C(F)(F)F)cc2)cc1)S(C)(=O)=O)C(=O)NO | 7.62 | 8.06 | 2.7 | 
20 | CS(=O)(=O)N(C[C@@H](C(=O)NO)N1CCCCC1)c1ccc(Oc2ccc(C(F)(F)F)cc2)cc1 |  | 8.64 | 3.3 | 
21 | CC(=O)N1CCN([C@@H](CN(c2ccc(Oc3ccc(C(F)(F)F)cc3)cc2)S(C)(=O)=O)C(=O)NO)CC1 |  |  | 1.8 | 

Row | Structure (SMILES) | pIC50 [1] | pIC50 [8] | Ratio IC50 [12] | further results
22 | CS(=O)(=O)N(C[C@@H](C(=O)NO)N1CCC(O)CC1)c1ccc(Oc2ccc(C(F)(F)F)cc2)cc1 | 8.24 | 8.72 | 3 | 
23 | Cc1ccc(Oc2ccc(N(C[C@H](Nc3ccccc3)C(=O)NO)S(C)(=O)=O)cc2)cc1 | 7.89 | 9.28 | 25 | 
24 | Cc1ccc(Oc2ccc(N(C[C@H](N)C(=O)NO)S(C)(=O)=O)cc2)cc1 |  |  | 5.5 | 
25 | Cc1ccc(Oc2ccc(N(C[C@H](N[C@H](C)c3ccccc3)C(=O)NO)S(C)(=O)=O)cc2)cc1 |  | 8.82 | 16 | 
26 | Cc1ccc(Oc2ccc(N(C[C@H](Nc3ccc4ccccc4c3)C(=O)NO)S(C)(=O)=O)cc2)cc1 | 5.85 |  | 16.6 | 
27 | Cc1ccc(Oc2ccc(N(C[C@H](NC3CCCC3)C(=O)NO)S(C)(=O)=O)cc2)cc1 |  |  | 5.9 | 
28 | C[C@@H]1CN([C@@H](CN(c2ccc(Oc3ccc(Cl)cc3)cc2)S(C)(=O)=O)C(=O)NO)C[C@H](C)O1 | 8.60 | 9.34 | 5.4 | 
29 | Cc1ccc(Oc2ccc(N(C[C@H](NCc3ccncc3)C(=O)NO)S(C)(=O)=O)cc2)cc1 |  | 8.74 | 5.3 | 
30 | CS(=O)(=O)N(C[C@H](O)C(=O)NO)c1ccc(Oc2ccc(Cl)cc2)cc1 | 7.46 | 8.33 | 7.4 | 
31 | CS(=O)(=O)N(C[C@H](O)C(=O)NO)c1ccc(Oc2ccc(C(F)(F)F)cc2)cc1 | 6.86 | 7.85 | 9.9 | pIC50 (Interstitial collagenase): < 5.00
32 | Cc1ccc(Oc2ccc(N(C[C@H](NC(C)C)C(=O)O)S(C)(=O)=O)cc2)cc1 | < 5.00 | < 5.00 |  | pIC50 (Interstitial collagenase): < 5.00
33 | Cc1ccc(Oc2ccc(N(C[C@@H](NC(C)C)C(=O)NO)S(C)(=O)=O)cc2)cc1 | 6.75 | 7.51 | 5.7 | 
34 | Cc1ccc(Oc2ccc(N(C[C@H](O)C(=O)NO)S(C)(=O)=O)cc2)cc1 | 7.21 | 8.11 |  | 
35 | CC(C)N(CCNC(=O)OCc1ccccc1)[C@@H](CN(c1ccc(Oc2ccc(C(F)(F)F)cc2)cc1)S(C)(=O)=O)C(=O)NO |  |  | 9 | 
36 | CNC(=O)C1CCN([C@@H](CN(c2ccc(Oc3ccc(C(F)(F)F)cc3)cc2)S(C)(=O)=O)C(=O)NO)CC1 | 8.26 | 8.60 | 2.2 | 
37 | CC(C)N(Cc1ccccc1)[C@@H](CN(c1ccc(Oc2ccc(C(F)(F)F)cc2)cc1)S(C)(=O)=O)C(=O)NO |  |  | 4.1 | 
38 | CC(C)N[C@@H](CN(c1ccc(Oc2ccc(C(F)(F)F)cc2)cc1)S(C)(=O)=O)C(=O)NO |  | 8.62 | 3.8 | pIC50 (Interstitial collagenase): < 5.00
39 | Cc1ccc(Oc2ccc(N(C[C@H](NCc3ccccc3)C(=O)NO)S(C)(=O)=O)cc2)cc1 |  |  | 28.4 | 
40 | O=C1NC(=O)C2(CCC(=O)N2c2ccc(Oc3ccc(Cl)cc3)cc2)C(=O)N1 |  |  |  | pKi (Collagenase 3): 9.00; pKi [1]: 9.40; pKi [8]: 9.15
41 | Cc1ccc(Oc2ccc(N(C[C@@H](C(=O)NO)N3C[C@@H](C)O[C@@H](C)C3)S(C)(=O)=O)cc2)cc1 |  |  | 4.1 | 
